Measurements as given in patent US7294501B2, “Geldanamycin-producing strains, uses thereof and methods of producing same” (priority 2003, dated 2007).

Test system: acidiscabies and caviscabies
Assay: Geldanamycin activity against other common scab causing species
Format: cell-based
Details: data not shown

## COC1=C2C[C@@H](C)C[C@H](OC)[C@H](O)[C@@H](C)/C=C(\C)[C@H](OC(N)=O)[C@@H](OC)/C=C\C=C(/C)C(=O)NC(=CC1=O)C2=O [Geldanamycin]
  activity against other common scab causing bacterial species: active
